{
  "source": "paper PMC3914206",
  "type_in_all_cases": "binding",
  "details_in_all_cases": "Compound Concentration 10 µM",
  "key": {"panel of 442 kinases [1]": {"target": "T1, panel of 442 kinases (Homo sapiens, UniProt P00533)", "T1 construct": "purchased KINOMEscan", "T1 sequence (P00533 25-1210)": "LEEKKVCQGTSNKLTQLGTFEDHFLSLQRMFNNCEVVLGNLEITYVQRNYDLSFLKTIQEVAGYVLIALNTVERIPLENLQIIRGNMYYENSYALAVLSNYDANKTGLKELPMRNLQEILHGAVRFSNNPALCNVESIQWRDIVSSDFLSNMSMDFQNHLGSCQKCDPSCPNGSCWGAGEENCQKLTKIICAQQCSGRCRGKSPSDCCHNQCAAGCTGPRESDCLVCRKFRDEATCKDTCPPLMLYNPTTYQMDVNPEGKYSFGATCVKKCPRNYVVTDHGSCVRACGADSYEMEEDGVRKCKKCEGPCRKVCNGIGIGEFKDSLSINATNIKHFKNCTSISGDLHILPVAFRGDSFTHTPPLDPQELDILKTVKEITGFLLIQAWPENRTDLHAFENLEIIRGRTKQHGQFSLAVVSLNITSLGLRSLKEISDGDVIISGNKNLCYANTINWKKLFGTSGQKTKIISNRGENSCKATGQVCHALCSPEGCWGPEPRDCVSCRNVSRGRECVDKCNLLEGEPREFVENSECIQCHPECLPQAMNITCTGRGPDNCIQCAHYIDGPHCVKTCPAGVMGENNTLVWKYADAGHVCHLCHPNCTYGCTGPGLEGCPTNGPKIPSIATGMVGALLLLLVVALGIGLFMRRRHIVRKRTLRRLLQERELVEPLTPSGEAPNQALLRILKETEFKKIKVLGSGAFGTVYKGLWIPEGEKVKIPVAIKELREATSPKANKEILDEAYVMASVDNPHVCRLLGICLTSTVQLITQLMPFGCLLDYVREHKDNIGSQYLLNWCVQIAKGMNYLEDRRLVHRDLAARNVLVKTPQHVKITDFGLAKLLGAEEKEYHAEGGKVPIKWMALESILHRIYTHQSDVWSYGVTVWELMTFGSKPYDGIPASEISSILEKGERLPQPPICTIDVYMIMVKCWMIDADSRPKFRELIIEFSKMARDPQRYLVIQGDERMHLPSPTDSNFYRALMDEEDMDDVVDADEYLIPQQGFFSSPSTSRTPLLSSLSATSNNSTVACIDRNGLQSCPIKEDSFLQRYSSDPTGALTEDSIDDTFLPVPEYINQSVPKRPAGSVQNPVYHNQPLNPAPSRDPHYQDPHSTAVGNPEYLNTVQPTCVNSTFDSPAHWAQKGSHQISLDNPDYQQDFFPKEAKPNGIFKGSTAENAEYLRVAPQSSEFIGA", "text": "(§1) We assessed the selectivity of members of this scaffold using the KINOMEscan methodology across a near comprehensive panel of 442 kinases [[18,27]]."}, "panel of 442 kinases [2]": {"target": "T2, panel of 442 kinases (Homo sapiens, UniProt Q9Y2H1)", "T2 construct": "purchased KINOMEscan", "T2 sequence (Q9Y2H1 whole entry)": "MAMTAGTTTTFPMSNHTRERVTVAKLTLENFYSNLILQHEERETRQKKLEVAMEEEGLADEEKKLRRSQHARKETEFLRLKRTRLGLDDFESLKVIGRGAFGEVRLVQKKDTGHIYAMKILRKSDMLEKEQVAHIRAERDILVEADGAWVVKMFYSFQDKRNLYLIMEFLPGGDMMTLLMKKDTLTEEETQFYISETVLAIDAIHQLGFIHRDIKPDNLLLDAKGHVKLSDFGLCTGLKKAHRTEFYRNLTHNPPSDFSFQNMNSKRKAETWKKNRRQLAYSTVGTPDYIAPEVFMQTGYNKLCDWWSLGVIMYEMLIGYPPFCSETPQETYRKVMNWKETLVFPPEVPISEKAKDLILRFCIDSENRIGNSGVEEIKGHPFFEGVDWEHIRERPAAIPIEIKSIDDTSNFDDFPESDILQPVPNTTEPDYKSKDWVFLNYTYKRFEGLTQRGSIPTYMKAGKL", "text": "as §1"}, "panel of 442 kinases [3]": {"target": "T3, panel of 442 kinases (Homo sapiens, UniProt Q8NG66)", "T3 construct": "purchased KINOMEscan", "T3 sequence (Q8NG66 1-645)": "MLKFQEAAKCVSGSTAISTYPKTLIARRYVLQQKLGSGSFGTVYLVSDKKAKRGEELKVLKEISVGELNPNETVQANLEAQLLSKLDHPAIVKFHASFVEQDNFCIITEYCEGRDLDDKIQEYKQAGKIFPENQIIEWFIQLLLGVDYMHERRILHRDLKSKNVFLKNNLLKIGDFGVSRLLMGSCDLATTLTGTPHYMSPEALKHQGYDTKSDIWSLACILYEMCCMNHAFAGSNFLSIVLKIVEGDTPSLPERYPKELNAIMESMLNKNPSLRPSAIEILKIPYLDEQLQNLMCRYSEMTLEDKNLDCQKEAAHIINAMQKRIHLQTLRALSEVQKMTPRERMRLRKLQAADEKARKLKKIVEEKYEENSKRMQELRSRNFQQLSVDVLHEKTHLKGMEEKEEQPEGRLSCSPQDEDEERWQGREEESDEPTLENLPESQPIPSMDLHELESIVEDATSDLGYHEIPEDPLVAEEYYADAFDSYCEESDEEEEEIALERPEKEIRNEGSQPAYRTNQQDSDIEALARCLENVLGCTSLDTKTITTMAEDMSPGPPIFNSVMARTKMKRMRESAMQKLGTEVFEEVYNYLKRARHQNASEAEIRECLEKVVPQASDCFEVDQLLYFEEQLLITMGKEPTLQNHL", "text": "as §1"}},
  "data": [
    {"molecule": "COc1cc(C(=O)N2CCC(N3CCN(C)CC3)CC2)ccc1Nc1ncc2c(n1)N(C)c1ccccc1C(=O)N2C", "note": "[15 (LRRK2-IN-1)]", "values": [
      {"measurement": "KINOMEscan: EGFR", "setting": "panel of 442 kinases [1]", "value": 84},
      {"measurement": "KINOMEscan: NDR2", "setting": "panel of 442 kinases [2]", "value": 100},
      {"measurement": "KINOMEscan: NEK11", "setting": "panel of 442 kinases [3]", "value": 100}
    ]},
    {"molecule": "COc1cc(C(=O)N2CCC(N3CCN(C)CC3)CC2)ccc1Nc1ncc2c(n1)N1CCc3cccc(c31)C(=O)N2C", "note": "[Compound 24]", "values": [
      {"measurement": "KINOMEscan: EGFR", "setting": "panel of 442 kinases [1]", "value": 74}
    ]},
    {"molecule": "COc1cc(C(=O)N2CCC(N3CCN(C)CC3)CC2)ccc1Nc1ncc2c(n1)N(C1CCCC1)c1ccccc1C(=O)N2C", "note": "[Compound 25, 11-cyclopentyl-2-((2-methoxy-4-(4-(4-methylpiperazin-1-yl)piperidine-1-carbonyl)phenyl)amino)-5-methyl-5H-benzo[e]pyrimido[5,4-b][1,4]diazepin-6(11H)-one]", "values": [
      {"measurement": "KINOMEscan: EGFR", "setting": "panel of 442 kinases [1]", "value": 89},
      {"measurement": "KINOMEscan: NDR2", "setting": "panel of 442 kinases [2]", "value": 100},
      {"measurement": "KINOMEscan: NEK11", "setting": "panel of 442 kinases [3]", "value": 100}
    ]},
    {"molecule": "CCOc1cc(C(=O)N2CCC(N3CCN(C)CC3)CC2)ccc1Nc1ncc2c(n1)N(C1CCCC1)c1ccccc1C(=O)N2C", "note": "[Compound 26]", "values": [
      {"measurement": "KINOMEscan: EGFR", "setting": "panel of 442 kinases [1]", "value": 100},
      {"measurement": "KINOMEscan: NDR2", "setting": "panel of 442 kinases [2]", "value": 100},
      {"measurement": "KINOMEscan: NEK11", "setting": "panel of 442 kinases [3]", "value": 100}
    ]}
  ]
}
